2 compounds from patent publication US20140030346A1, “DISINTEGRABLE CORE PARTICLE FOR PHARMACEUTICAL PREPARATION” (priority 2010, published 2014) can be followed below.

Molecules are shown by their SMILES.

A short description of data set [1]: Dissolution test, ibuprofen (paddle method, JP second fluid pH 6.8). It is filed as physicochemical. Particulars: JP second fluid pH 6.8, 37° C., 75 rpm. The procedure: (§1) Dissolution tests were carried oat, according to the procedures shown in Tables 6 to 8 and described below, on pharmaceutical preparations composed of the drug-containing particles obtained in Examples 11 and 12. The results are shown in Tables 9 and 10 and in FIGS. 14 and 15.
The liquid sampled in the dissolution test is used directly as the sample solution. Analysis according to “2.01 Liquid Chromatography” is carried out on this sample solution. Testing of the ibuprofen content in the sample solution is carried out under the conditions indicated in (1) above.
In a separate operation, 25 mg of ibuprofen reference is precisely weighed out and dissolved in acetonitrile while bringing the volume up to exactly 50 mL. Next, 5 mL of this solution is precisely measured out and JP second fluid is added so as to bring the volume up to exactly 25 mL, thereby giving a reference solution (about 100 ppm). In a separate operation, 5 mL of this solution is precisely measured out and JP second fluid is added so as to bring the volume up to 50 mL, thereby giving a 50 ppm reference solution. Next, 10 mL of this solution is precisely measured out and JP second fluid is added so as to bring the volume up to exactly 25 mL, thereby giving a […] reference solution. Liquid chromatography is carried out on these reference solutions, and the slopes (a) and intercepts (t) of the straight lines obtained by plotting the peak areas and concentrations of the ibuprofen references are determined. The dissolution rate is determined by entering the content B in the sample solution into the following formula: […]

The nature of data set [2]: Dissolution test, rabeprazole (paddle method, tris buffer pH 8.0). It is filed as physicochemical. Particulars: tris buffer pH 8.0, 37° C., 50 rpm. The method, then:
as §1
First, 20 mg of rabeprazole sodium is precisely weighed cut and dissolved by adding 30 mL of an aqueous NaOH solution (0.5 M), after which 45 mL of methanol is added, then the volume is brought up to exactly 100mL with a water-methanol solution (2:3). Two mL of this solution is precisely measured out and brought up to exactly 100 mL with a water-methanol solution (2:3), thereby giving a 4 ppm reference solution. In a separate procedure, 2 mL of the same solution is precisely measured out and brought up to a volume of exactly 200 mL with a water-methanol solution (2:3), thereby giving a 2 ppm reference solution. Liquid chromatography is carried on these reference solutions, and the slopes (a) and intercepts (t) of the straight lines obtained by plotting the peak areas and concentrations of rabeprazole are determined.
One milliliter of an aqueous NaOH solution (0.5 M) is added to 5 mL of the sample solution at each sampling time, and the resulting solution is thoroughly mixed. Next, 4 mL of this solution is precisely measured out, then 2 mL of an aqueous NaOH solution (0.5 M) and 8 mL of methanol are added, following which the volume is brought up to exactly 20 mL with a water-methanol solution (2:3). Liquid chromatography is then carried cut under the conditions described above, and the peak area (Qt) for rabeprazole is determined. Both the reference solutions and the sample solution are used as injection solutions after filtration with a membrane filter having a pore sire of 0.2 μm.
Dissolution rate (%)=(Qt−t)/a×5×6/5×900/1,000/amount of rabeprazole Na collected (mg)×100

For `CC(C)Cc1ccc(C(C)C(=O)O)cc1` (stereo not drawn) [IBP-Ref., Ibuprofen], the Dissolution rate stood at 49.5% in data set [1] (dissolution time 5 min); 77.3% in data set [1] (dissolution time 10 min); 83.4% in data set [1] (dissolution time 15 min); 86.0% in data set [1] (dissolution time 20 min); 89.6% in data set [1] (dissolution time 30 min); 95.0% in data set [1] (dissolution time 60 min).
Consider `COCCCOc1ccnc(C[S+]([O-])c2nc3ccccc3[nH]2)c1C` (stereo not drawn) [RBP-Ref., Rabeprazole Na], for which the Dissolution rate in data set [2] (dissolution time 5 min) is 78.6%; in data set [2] (dissolution time 10 min), 86.0%; in data set [2] (dissolution time 15 min) it was 87.1%; in data set [2] (dissolution time 20 min), 87.5%; in data set [2] (dissolution time 30 min) it was 85.5%; in data set [2] (dissolution time 60 min), 78.4%.
